Reference: patent US20230025836A1, “EYE DROP COMPOSITION FOR PREVENTING OR TREATING EYE DISEASE” (Samjin Pharmaceutical Co., Ltd., priority 2019, published 2023)
Values after ≈ are worked out from the molar mass of the structure shown.

Assay: Solubility of the active material in water
Assay type: physicochemical
Description: In one embodiment, the eye drop may comprise the above-described solubilizing agent, so that an active ingredient thereof may be well dissolved and may not be precipitated even after long-term storage, thus resulting in better physical stability and chemical stability. In one embodiment, a concentration of the solubilizing agent in the eye drop may be 0.1 w/v % to 25.0 w/v %. In one embodiment, the type of the solubilizing agent may not be particularly limited, but may include, for example, at least one selected from the group consisting of surfactants, solvents, and mixtures thereof as follows. […] Thus, in one embodiment, the eye drop may comprise the solubilizing agent to dissolve 3-phenyl-4-propyl-1-(pyridin-2-yl)-1H-pyrazol-5-ol by 0.1% (1,000 μg/mL) to 2.0% (20,000 μg/mL).

CCCc1c(-c2ccccc2)nn(-c2ccccn2)c1O [3-phenyl-4-propyl-1-(pyridin-2-yl)-1H-pyrazol-5-ol]
solubility: ~3.4 µg/mL (≈ 12.2 µM)
